Data as given in patent US20260069560A1, “COMPOSITIONS AND METHODS OF USE” (UNIVERSITY OF FLORIDA RESEARCH FOUNDATION, INCORPORATED, priority 2022, published 2026).

Tests used:
[1] = tested on: primary mouse splenic CD8+ T cells; assay: Bioassay for IFNγ stimulation in primary splenic CD8+ T cells, flow cytometric analysis; format: cell-based; details: for IFNγ stimulation from primary splenic CD8+ T cells: synthetic compounds, concentration range 0.01-1 mM
Protocol: Isolates are cultured in 96-well deep well plates for 3 days under anaerobic conditions in MEGA media. Cell-free supernatant is obtained by filtering cultures by […] syringe filtration. Cell-free supernatant is added to the serum-free culture media of primary mouse splenic CD8+ T cells at a ratio of 1:100, followed by 6 hours of incubation. After incubation, cells are harvested and stained for flow cytometric analysis, which is performed on the BD Fortessa LSR, followed by analysis using FlowJo.
FIGS. 11A-11F illustrate that synthetic cis-Bac430 induces dose-dependent stimulation of IFNγ production. Representative results are shown for IFNγ stimulation from primary splenic CD8+ T cells by cis-Bac430 and trans-Bac430 at a concentration range between 0.01-0.25 mM (FIG. 11A) or between 0.01-1 mM (FIG. 11B). P values calculated using Mann-Whitney U test compared to unstimulated negative control and PMA/Ionomycin-stimulated positive control. Representative results are shown for the percent of live CD8+ T cells from the bioassay for IFNγ stimulation by cis-Bac430 and trans-Bac430 at a concentration range between 0.01-0.25 mM (FIG. 11C) or between 0.01-1 mM (FIG. 11D). P values calculated using Mann-Whitney U test compared to unstimulated negative control and PMA/Ionomycin-stimulated positive control. Representative results are shown for mean±SEM of fecal Bac430 concentration in μM normalized to stool weight from SPF, germ free (GF) or six-consort colonized germ free mice 2 weeks post-colonization (FIG. 11E) or for each member of the six-consort following 3 days anaerobic culture (FIG. 11F).
Feces collected from R mice were used as source material for high-throughput microbial isolation performed with the GALT Prospector technology. Bacterial identification was performed using MALDI-TOF Biotyper and Sanger sequencing. The cell free supernatants and <3 kDa small molecules of 183 Bacteroides isolates were screened for their ability to stimulate IFNγ production via a bioassay using primary CD8+ T cells and flow cytometric analysis. A consortium composed of six IFNγ-stimulating isolates or NR feces was transplanted into a gnotobiotic mouse model of lung cancer and treated with anti-PD-1, with or without anti-IFNγ monoclonal antibody depletion. Tumors were harvested at endpoint for flow cytometric analysis, and blood serum for IFNγ ELISA. […] Vacuum and high-performance liquid chromatography were used to identify fractions from the cell free supernatant of a single stimulating Bacteroides isolate which stimulate IFNγ production.
To summarize, small molecule characterization was performed using LC-MS/MS and computation pipelines for structural prediction. […]

[2] = tested on: LLC subcutaneous allograft tumors; assay: Intratumoral injection of cis-Bac430 in combination with anti-PD-1 therapy in lung tumor-bearing mice; format: in vivo
Protocol: FIGS. 12A-12G illustrate that intratumoral administration of cis-Bac430 in combination with anti-PD-1 therapy reduces tumor volume and enhances systemic anti-tumor immunity. An experimental schematic is shown for testing anti-PD-1 mediated anti-tumor effect in combination with intratumoral injection of cis-Bac430 or DMSO control (FIG. 12A). Representative results are shown for the growth curve of LLC subcutaneous allograft tumors receiving intratumoral injection of either cis-Bac430 (0.043 mg/mouse) or DMSO alone at the same time as anti-PD-1 treatment or saline control (FIG. 12n). Each point represents tumor volume mean±SEM. At day 20, P values are calculated by Mann-Whitney U test. Representative results are shown for the mean±SEM of tumor weight at the endpoint for mice treated with an anti-PD-1 monoclonal antibody or saline control that received intratumoral injection of either cis-Bac430 or DMSO (FIG. 12C). P values are calculated by Mann-Whitney U test. Representative results are shown for the mean±SEM of intratumoral CD8+ frequency at endpoint for mice treated with an anti-PD-1 monoclonal antibody or saline control that received intratumoral injection of either cis-Bac430 or DMSO (FIG. 12D). P values are calculated by Mann-Whitney U test. Representative results are shown for the mean±SEM of intratumoral IFNγ+CD8+ frequency at endpoint for mice treated with an anti-PD-1 monoclonal antibody or saline control that received intratumoral injection of either cis-Bac430 or DMSO (FIG. 12E). P values are calculated by Mann-Whitney U test. Representative results are shown for the mean±SEM of splenic CD8+ frequency at endpoint for mice treated with an anti-PD-1 monoclonal antibody or saline control that received intratumoral injection of either cis-Bac430 or DMSO (FIG. 12F). P values are calculated by Mann-Whitney U test. Representative results are shown for the mean±SEM of splenic IFNγ+CD8+ frequency at endpoint for mice treated with an anti-PD-1 monoclonal antibody or saline control that received intratumoral injection of either cis-Bac430 or DMSO (FIG. 12G). P values are calculated by Mann-Whitney U test.
Lung tumor-bearing mice were injected intratumorally with a 10 μL volume of either 10 mM (0.043 mg/dose) cis-Bac430 or DMSO on each day of anti-PD-1 therapy (FIG. 12A).

[3] = combined with anti-PD-1, endpoint
[4] = intratumoral 0.043 mg/dose on each day of anti-PD-1 therapy, compared to anti-PD-1 or DMSO injection
[5] = intratumoral administration, endpoint

Compound	proliferative effect on CD8+ T cells (percent of live CD8+ T cells) ([1]; higher concentrations)	IFNγ stimulation from primary splenic CD8+ T cells [1]	IFNγ stimulation from primary splenic CD8+ T cells ([1]; listed as Cis-Bac430)	frequency of intratumoral CD8+ T cells [2, 3]	tumor infiltrating cytotoxic IFNγ+CD8+ T cells [2, 3]	tumor volume at endpoint [2, 4]	tumor weight at endpoint [2, 4]	splenic IFNγ+CD8+ T cells [2, 5]	splenic overall CD8+ T cell frequency [2, 5]
CCCCCC/C=C\CCCCCCCCCC(=O)N[C@@H](Cc1ccccc1)C(=O)O [cis-Bac430]	mild proliferative effect	dose dependent bioactivity	robustly stimulate IFNγ	increased frequency	trend toward increased	significantly smaller	significantly smaller	trend toward increased	decreased
CCCCCC/C=C/CCCCCCCCCC(=O)N[C@@H](Cc1ccccc1)C(=O)O [trans-Bac430]	–	does not demonstrate bioactivity	–	–	–	–	–	–	–
